The values that follow come from patent US20230117034A1, “PYRAZOLOTRIAZINES” (Bayer Aktiengesellschaft, priority 2019, published 2023).

pIC50: −log10 of the molar value.

In assay [1] the test system is BRCA1 mRNA expression in MDA-MB-231 cells. The assay is described as follows: qRT-PCR assay: BRCA1 mRNA expression in MDA-MB-231. It is filed as cell-based, human. As to conditions: Homo sapiens, MDA-MB-231, Inhibition of BRCA1 mRNA expression in MDA-MB-231 cells; median; read-out: RTqPCR-MDA-MB-231, IC50, BRCA1 (median). The essentials:
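Read-out is RT-qPCR with expression normalised to the GAPDH housekeeping gene. Before RNA isolation, plated cells (200,000 per well, 24 h attachment) received test substances continuously over 24 h, and 600 ng of RNA served as cDNA template.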
In general terms: In qPCR the cycle at which signal appears reflects the starting amount.

In assay [2] the test system is CAL-120, human breast adenocarcinoma cells. The assay is described as follows: Proliferation assay CAL-120 (crystal violet, 4 days). In kind it is cell-based. As to conditions: Homo sapiens, CAL-120, 96 h, CAL-120 cells, median, read-out: Prolif-CAL-120, IC50-[mol/l] (median). In short, it runs like this:
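Plated 4,000 cells/well, 10% FCS; 24 h later treated 0.01-10 µmol/L cpd (DMSO 0.1%), 4 d. Fix glutaraldehyde, stain 0.1% crystal violet pH 3.0, elute acetic acid, A595. Normalized to t0 plate/untreated; 4-param IC50.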

Assay [3] deals with T1, CDK12 (nuclear staining in CAL-120 cells) (Homo sapiens, UniProt Q9NYV4).
T1 construct: endogenous in cells; host or cells: CAL-120 human breast cancer cells (DSMZ ACC 459)
Kind of assay: CDK12 nuclear protein level: immunofluorescence/high content analysis (CAL-120). It is filed as cell-based. As to conditions: for DC50: CAL-120 cells, 24 h, immunofluorescence, 50% reduction of nuclear CDK12 staining intensity, median, read-out: CDK12 degradation IF, DC50- [mol/l] (median); for (IC50 CDK12 high ATP) to (Degradation DC50 CDK12) ratio: ratio of IC50 CDK12 high ATP kinase assay to DC50 CDK12 degradation (IF, CAL-120). In short, it runs like this:
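CAL-120 cells were treated with compound for 24 h at 37 °C, fixed with PFA and immunostained for CDK12. Nuclear CDK12 intensity was quantified by automated image analysis and normalized to DMSO and control. DC50 is the concentration giving 50% reduction of nuclear staining.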

Assay [4] concerns the target T2, CYCLIN K (nuclear staining in CAL-120 cells) (Homo sapiens, UniProt O75909).
T2 construct: endogenous in cells; host or cells: CAL-120 human breast cancer cells (DSMZ ACC 459)
The assay is described as follows: CYCLIN K nuclear protein level: immunofluorescence high content analysis (CAL-120). It is filed as cell-based. As to conditions: 24 h, 50% reduction of nuclear CCNK staining intensity, median, read-out: CYCLIN K degradation IF, DC50-[mol/l] (median). In short, it runs like this:
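CAL-120 breast cancer cells treated in dose-response for 24 h at 37 °C, PFA-fixed and immunostained for cyclin K with Hoechst counterstain. Confocal imaging quantified nuclear intensity; DC50 is the concentration giving 50% reduction of nuclear CCNK staining, normalized to DMSO and control.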

T2 sequence (O75909 whole entry): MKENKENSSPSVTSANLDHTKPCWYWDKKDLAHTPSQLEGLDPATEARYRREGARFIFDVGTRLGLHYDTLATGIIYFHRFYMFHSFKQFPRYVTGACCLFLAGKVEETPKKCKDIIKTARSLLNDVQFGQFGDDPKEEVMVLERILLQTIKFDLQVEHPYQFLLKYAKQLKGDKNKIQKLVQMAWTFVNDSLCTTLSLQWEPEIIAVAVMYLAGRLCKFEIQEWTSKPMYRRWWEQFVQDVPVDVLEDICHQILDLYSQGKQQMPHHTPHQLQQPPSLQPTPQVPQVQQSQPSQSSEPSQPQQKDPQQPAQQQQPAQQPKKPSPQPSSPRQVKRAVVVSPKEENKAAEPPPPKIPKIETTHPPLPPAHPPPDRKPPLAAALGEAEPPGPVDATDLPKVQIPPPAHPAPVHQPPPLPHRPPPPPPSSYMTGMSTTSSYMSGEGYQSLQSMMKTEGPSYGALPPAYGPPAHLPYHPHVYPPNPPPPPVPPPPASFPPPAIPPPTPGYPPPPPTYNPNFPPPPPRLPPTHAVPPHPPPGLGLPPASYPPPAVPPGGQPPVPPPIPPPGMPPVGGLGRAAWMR
T2 sequence (Q9NYV4 whole entry partner): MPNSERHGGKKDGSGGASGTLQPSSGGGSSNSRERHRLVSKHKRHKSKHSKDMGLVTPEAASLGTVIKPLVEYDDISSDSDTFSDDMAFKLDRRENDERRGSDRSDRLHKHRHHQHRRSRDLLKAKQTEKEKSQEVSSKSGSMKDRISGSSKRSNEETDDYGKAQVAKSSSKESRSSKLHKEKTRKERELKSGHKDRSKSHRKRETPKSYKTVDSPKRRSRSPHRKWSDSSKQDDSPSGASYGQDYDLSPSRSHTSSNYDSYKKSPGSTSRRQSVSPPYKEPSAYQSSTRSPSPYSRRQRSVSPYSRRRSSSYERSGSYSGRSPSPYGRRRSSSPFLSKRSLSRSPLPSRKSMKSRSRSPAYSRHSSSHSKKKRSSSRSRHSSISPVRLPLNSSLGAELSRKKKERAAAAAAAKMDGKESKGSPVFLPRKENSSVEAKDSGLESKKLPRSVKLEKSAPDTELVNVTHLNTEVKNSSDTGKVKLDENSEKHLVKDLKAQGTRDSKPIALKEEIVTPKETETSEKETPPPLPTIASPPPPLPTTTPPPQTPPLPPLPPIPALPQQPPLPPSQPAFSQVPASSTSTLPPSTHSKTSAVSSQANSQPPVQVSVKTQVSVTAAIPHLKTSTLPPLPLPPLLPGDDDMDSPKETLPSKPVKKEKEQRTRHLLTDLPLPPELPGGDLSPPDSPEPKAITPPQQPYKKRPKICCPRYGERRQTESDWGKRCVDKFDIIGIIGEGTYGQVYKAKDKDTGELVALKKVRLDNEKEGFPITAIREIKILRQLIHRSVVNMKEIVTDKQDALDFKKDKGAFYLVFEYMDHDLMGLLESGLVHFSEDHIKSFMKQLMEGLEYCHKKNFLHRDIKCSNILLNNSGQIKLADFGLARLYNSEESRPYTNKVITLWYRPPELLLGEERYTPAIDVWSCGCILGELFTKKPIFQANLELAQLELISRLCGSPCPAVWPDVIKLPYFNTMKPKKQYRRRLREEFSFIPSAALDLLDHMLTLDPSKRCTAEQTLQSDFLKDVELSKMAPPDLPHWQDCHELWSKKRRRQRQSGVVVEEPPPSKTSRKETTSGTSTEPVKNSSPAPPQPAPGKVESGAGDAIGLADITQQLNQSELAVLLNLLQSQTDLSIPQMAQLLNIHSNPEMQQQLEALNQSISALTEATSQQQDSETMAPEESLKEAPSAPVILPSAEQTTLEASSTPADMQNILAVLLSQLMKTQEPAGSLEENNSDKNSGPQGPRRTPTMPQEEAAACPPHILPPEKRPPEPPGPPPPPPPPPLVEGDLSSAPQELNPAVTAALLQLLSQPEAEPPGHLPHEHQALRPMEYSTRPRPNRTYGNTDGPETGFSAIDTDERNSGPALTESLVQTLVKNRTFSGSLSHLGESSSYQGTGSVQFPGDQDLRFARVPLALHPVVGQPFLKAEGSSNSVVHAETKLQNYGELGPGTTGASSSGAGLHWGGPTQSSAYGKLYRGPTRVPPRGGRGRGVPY
T1 sequence (Q9NYV4 whole entry): as the sequence (Q9NYV4 whole entry partner) above
T1 sequence (O75909 whole entry partner): as the sequence (O75909 whole entry) above

Turning to `CN1CCN(c2nc(NCc3nc4cc(F)ccc4[nH]3)n3ncc(C4CC4)c3n2)CC1` [Example 164, 8-cyclopropyl-N-[(5-fluoro-1H-benzimidazol-2-yl)methyl]-2-(4-methylpiperazin-1-yl)pyrazolo[1,5-a][1,3,5]triazin-4-amine], the figures for the pIC50 in assay [1] and in assay [2] were 8.59 and 8.38, respectively. Besides, the figures for the DC50 in assay [3] and in assay [4] were 0.99 nM and 1.12 nM, respectively. For the same molecule, the “(IC50 CDK12 high ATP) to (Degradation DC50 CDK12) ratio” value in assay [3] is listed as more than 20194.
On to `Cc1cccc2[nH]c(CNc3nc(N4CCOCC4)nc4c(Br)cnn34)nc12` [Example 150, 8-bromo-N-[(4-methyl-1H-benzimidazol-2-yl)methyl]-2-(morpholin-4-yl)pyrazolo[1,5-a][1,3,5]triazin-4-amine], for which the pIC50 in assay [1] was 7.89; in assay [2] it was 7.74. In addition, the DC50 in assay [3] worked out at 1.31 nM; in assay [4] it was 1.48 nM. Also, the “(IC50 CDK12 high ATP) to (Degradation DC50 CDK12) ratio” value in assay [3] is listed as 2033.
Take `C[C@H]1CN(c2nc(NCc3nc4ccccc4[nH]3)n3ncc(Br)c3n2)CCN1C` [Example 132, N-[(1H-benzimidazol-2-yl)methyl]-8-bromo-2-[(3S)-3,4-dimethylpiperazin-1-yl]pyrazolo[1,5-a][1,3,5]triazin-4-amine]: the pIC50 in assay [1] was 7.53; in assay [2], 7.36. The DC50 in assay [3] is 0.922 nM; in assay [4], 2.22 nM. In addition, the “(IC50 CDK12 high ATP) to (Degradation DC50 CDK12) ratio” value in assay [3] is listed as more than 20812.
In the case of `COc1ccc2[nH]c(CNc3nc(N4CCOCC4)nc4c(Br)cnn34)nc2c1` [Example 160, 8-bromo-N-[(5-methoxy-1H-benzimidazol-2-yl)methyl]-2-(morpholin-4-yl)pyrazolo[1,5-a][1,3,5]triazin-4-amine], the pIC50 in assay [1] was 8.53; in assay [2], 8.19. Moreover, the DC50 in assay [3] came to 1.4 nM; in assay [4], 0.743 nM. The “(IC50 CDK12 high ATP) to (Degradation DC50 CDK12) ratio” value in assay [3] is 889.
As to `CN1CCN(c2nc(NCc3nc4cc(F)ccc4[nH]3)n3ncc(Br)c3n2)CC1` [Example 134, 8-bromo-N-[(5-fluoro-1H-benzimidazol-2-yl)methyl]-2-(4-methylpiperazin-1-yl)pyrazolo[1,5-a][1,3,5]triazin-4-amine], the pIC50 in assay [1] is 8.26; in assay [2], 7.94. Besides, the DC50 in assay [3] came out at 0.991 nM; in assay [4] it was 0.172 nM. In addition, in assay [3], the “(IC50 CDK12 high ATP) to (Degradation DC50 CDK12) ratio” value is more than 17850.
On to `C[C@@H]1CN(c2nc(NCc3nc4ccccc4[nH]3)n3ncc(Br)c3n2)CCN1C` [Example 135, N-[(1H-benzimidazol-2-yl)methyl]-8-bromo-2-[(3R)-3,4-dimethylpiperazin-1-yl]pyrazolo[1,5-a][1,3,5]triazin-4-amine], for which the pIC50 is 7.52 in assay [1] and 7.38 in assay [2]. The DC50 in assay [3] amounted to 3.69 nM; in assay [4], 0.554 nM. The “(IC50 CDK12 high ATP) to (Degradation DC50 CDK12) ratio” value in assay [3] turned out to be 3939.
For `CC1(C)CN(c2nc(NCc3nc4ccccc4[nH]3)n3ncc(C4CC4)c3n2)CCO1` [Example 123, N-[(1H-benzimidazol-2-yl)methyl]-8-cyclopropyl-2-(2,2-dimethylmorpholin-4-yl)pyrazolo[1,5-a][1,3,5]triazin-4-amine], the pIC50 is 7.15 in assay [1] and 7.08 in assay [2]. Besides, the DC50 in assay [3] was 4.37 nM; in assay [4], 5.03 nM. Also, the “(IC50 CDK12 high ATP) to (Degradation DC50 CDK12) ratio” value in assay [3] came out at 2883.
`Fc1cccc(-c2nnc(CNc3nc(N4CCNCC4)nc4c(Br)cnn34)[nH]2)c1` [Example 152, 8-bromo-N-{[5-(3-fluorophenyl)-4H-1,2,4-triazol-3-yl]methyl}-2-(piperazin-1-yl)pyrazolo[1,5-a][1,3,5]triazin-4-amine]: the pIC50 in assay [1] was 8.37; in assay [2] it was 8.41. For the same molecule, the DC50 in assay [3] turned out to be 12.7 nM; in assay [4], 1.11 nM. Moreover, the “(IC50 CDK12 high ATP) to (Degradation DC50 CDK12) ratio” value in assay [3] was 236.
For the molecule `Clc1ccc2[nH]c(CNc3nc(N4CCOCC4)nc4c(Br)cnn34)nc2c1` [Example 162, 8-bromo-N-[(5-chloro-1H-benzimidazol-2-yl)methyl]-2-(morpholin-4-yl)pyrazolo[1,5-a][1,3,5]triazin-4-amine], the figures for the pIC50 in assay [1] and in assay [2] were 8.96 and 8.81, respectively. In addition, the DC50 came to 0.471 nM in assay [3] and 0.112 nM in assay [4]. Also, in assay [3], the “(IC50 CDK12 high ATP) to (Degradation DC50 CDK12) ratio” value came to 2160.
The like results for `C[C@@H]1CN(c2nc(NCc3nc4ccccc4[nH]3)n3ncc(Br)c3n2)C[C@H](C)N1C` [Example 129, N-(1H-benzimidazol-2-ylmethyl)-8-bromo-2-[(3R,5S)-3,4,5-trimethylpiperazin-1-yl]pyrazolo[1,5-a][1,3,5]triazin-4-amine] were, in that order, 6.76, 6.90, 4.98 nM, 3.39 nM and more than 3658.
For `C[C@@H]1CN(c2nc(NCc3nc4cc(F)ccc4[nH]3)n3ncc(Br)c3n2)C[C@H](C)O1` [Example 110, 8-bromo-2-[(2R,6S)-2,6-dimethylmorpholin-4-yl]-N-[(5-fluoro-1H-benzimidazol-2-yl)methyl]pyrazolo[1,5-a][1,3,5]triazin-4-amine], the pIC50 in assay [1] is 8.12; in assay [2] it was 8.30. The results for the DC50 in assay [3] and in assay [4] were 1.03 nM and 0.354 nM, respectively. Moreover, the “(IC50 CDK12 high ATP) to (Degradation DC50 CDK12) ratio” value in assay [3] worked out at 394.
In the same order, the values of `CN1CCN(c2nc(NCc3nc4cc(Cl)ccc4[nH]3)n3ncc(Br)c3n2)CC1` [Example 163, 8-bromo-N-[(5-chloro-1H-benzimidazol-2-yl)methyl]-2-(4-methylpiperazin-1-yl)pyrazolo[1,5-a][1,3,5]triazin-4-amine] are 8.99, 8.98, 0.334 nM, 0.279 nM and more than 17106.
Regarding `Brc1cnn2c(NCc3nnc(-c4ccccc4)[nH]3)nc(N3C[C@H]4C[C@@H]3CO4)nc12` [Example 118, 8-bromo-2-[(1R,4R)-2-oxa-5-azabicyclo[2.2.1]heptan-5-yl]-N-[(5-phenyl-4H-1,2,4-triazol-3-yl)methyl]pyrazolo[1,5-a][1,3,5]triazin-4-amine], the pIC50 in assay [1] was 7.58; in assay [2] it was 7.53. Moreover, the DC50 in assay [3] amounted to 4.85 nM; in assay [4], 2.98 nM. In addition, in assay [3], the “(IC50 CDK12 high ATP) to (Degradation DC50 CDK12) ratio” value is 1176.
For the molecule `Fc1cc(-c2nnc(CNc3nc(N4CCOCC4)nc4c(Br)cnn34)[nH]2)cc(F)c1F` [Example 100, 8-bromo-2-(morpholin-4-yl)-N-{[5-(3,4,5-trifluorophenyl)-4H-1,2,4-triazol-3-yl]methyl}pyrazolo[1,5-a][1,3,5]triazin-4-amine], the pIC50 was 7.21 in assay [1] and 7.22 in assay [2]. Besides, the DC50 in assay [3] was 10.2 nM; in assay [4] it was 7.4 nM. Besides, the “(IC50 CDK12 high ATP) to (Degradation DC50 CDK12) ratio” value in assay [3] turned out to be 122.
As for `c1cncc(-c2cnn3c(NCc4nc5ccccc5[nH]4)nc(N4CCOCC4)nc23)c1` [Example 108, N-[(1H-benzimidazol-2-yl)methyl]-2-(morpholin-4-yl)-8-(pyridin-3-yl)pyrazolo[1,5-a][1,3,5]triazin-4-amine], the pIC50 in assay [1] is 7.06; in assay [2] it was 7.05. In addition, the results for the DC50 in assay [3] and in assay [4] were 5.53 nM and 2.91 nM, respectively. For the same molecule, in assay [3], the “(IC50 CDK12 high ATP) to (Degradation DC50 CDK12) ratio” value is listed as more than 3617.
On to `Fc1ccc(-c2cnn3c(NCc4nc5ccccc5[nH]4)nc(N4CCOCC4)nc23)cc1` [Example 106, N-[(1H-benzimidazol-2-yl)methyl]-8-(4-fluorophenyl)-2-(morpholin-4-yl)pyrazolo[1,5-a][1,3,5]triazin-4-amine], for which the results for the pIC50 in assay [1] and in assay [2] were 7.49 and 7.33, respectively. The values for the DC50 in assay [3] and in assay [4] were 11.4 nM and 2.45 nM, respectively. Also, in assay [3], the “(IC50 CDK12 high ATP) to (Degradation DC50 CDK12) ratio” value is more than 876.
In the case of `Brc1cnn2c(NCc3nc4ccccc4[nH]3)nc(N3CCN4CCC[C@H]4C3)nc12` [Example 148, N-[(1H-benzimidazol-2-yl)methyl]-8-bromo-2-[(8aS)-hexahydropyrrolo[1,2-a]pyrazin-2 (1 H)-yl]pyrazolo[1,5-a][1,3,5]triazin-4-amine], the pIC50 in assay [1] was 7.06; in assay [2], 6.96. Also, the DC50 in assay [3] was 16 nM; in assay [4], 8.06 nM. Moreover, the “(IC50 CDK12 high ATP) to (Degradation DC50 CDK12) ratio” value in assay [3] was 677.
